{
  "source": "patent US11166924B2",
  "about": "“N-methyl-d-aspartate receptor allosteric modulators and methods for their use” (Qingdao Primedicine Pharmaceutical Company, Ltd., priority 2016, dated 2021)",
  "key": {"GluN1/GluN2A^I176Y": {"target": "T1, GluN1/GluN2A^I176Y (Rattus norvegicus, UniProt P35439+Q00959, I176Y)", "T1 construct": "expressed in transfected cells; host or cells: HEK293", "T1 sequence (Q00959 23-1464 I176Y, other chains not shown)": "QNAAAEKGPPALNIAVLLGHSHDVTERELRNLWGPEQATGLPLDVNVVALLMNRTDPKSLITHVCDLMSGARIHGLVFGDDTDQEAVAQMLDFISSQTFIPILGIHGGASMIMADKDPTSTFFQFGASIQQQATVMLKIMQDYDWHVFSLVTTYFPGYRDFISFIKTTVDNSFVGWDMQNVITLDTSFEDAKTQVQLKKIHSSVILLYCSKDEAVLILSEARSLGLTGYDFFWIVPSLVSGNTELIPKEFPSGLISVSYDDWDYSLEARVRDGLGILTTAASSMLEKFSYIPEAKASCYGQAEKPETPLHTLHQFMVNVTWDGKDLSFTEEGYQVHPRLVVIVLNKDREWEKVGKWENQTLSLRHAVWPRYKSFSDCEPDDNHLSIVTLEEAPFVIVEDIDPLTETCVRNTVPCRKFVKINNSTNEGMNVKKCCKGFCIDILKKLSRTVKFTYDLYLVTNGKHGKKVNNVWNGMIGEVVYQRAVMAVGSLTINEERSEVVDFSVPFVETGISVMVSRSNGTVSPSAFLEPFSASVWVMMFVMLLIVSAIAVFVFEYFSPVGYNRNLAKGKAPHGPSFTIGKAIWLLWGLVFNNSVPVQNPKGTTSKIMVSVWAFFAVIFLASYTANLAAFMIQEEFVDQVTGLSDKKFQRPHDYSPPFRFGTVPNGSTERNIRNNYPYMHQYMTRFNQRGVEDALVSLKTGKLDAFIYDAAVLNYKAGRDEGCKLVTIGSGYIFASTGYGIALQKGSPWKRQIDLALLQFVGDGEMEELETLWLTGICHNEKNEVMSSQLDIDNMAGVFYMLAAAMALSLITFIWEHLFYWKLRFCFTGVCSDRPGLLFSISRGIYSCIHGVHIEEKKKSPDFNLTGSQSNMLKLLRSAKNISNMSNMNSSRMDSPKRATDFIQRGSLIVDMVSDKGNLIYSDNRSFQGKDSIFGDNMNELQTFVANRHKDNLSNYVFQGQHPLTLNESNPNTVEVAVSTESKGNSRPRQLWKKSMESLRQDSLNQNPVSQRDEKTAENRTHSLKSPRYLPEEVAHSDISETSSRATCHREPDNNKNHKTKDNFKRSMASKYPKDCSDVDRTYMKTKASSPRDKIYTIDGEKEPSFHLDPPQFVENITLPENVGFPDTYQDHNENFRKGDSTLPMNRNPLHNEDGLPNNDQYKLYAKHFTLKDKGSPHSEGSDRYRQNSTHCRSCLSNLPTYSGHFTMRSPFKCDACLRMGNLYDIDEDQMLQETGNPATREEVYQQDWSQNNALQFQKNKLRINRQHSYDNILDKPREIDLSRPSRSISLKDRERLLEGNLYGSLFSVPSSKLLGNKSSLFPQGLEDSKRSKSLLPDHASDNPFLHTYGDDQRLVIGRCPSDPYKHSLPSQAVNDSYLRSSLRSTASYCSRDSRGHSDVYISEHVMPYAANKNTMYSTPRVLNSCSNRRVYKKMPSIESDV", "experiment": "Patch clamp in HEK293 cells expressing mutant GluN1/GluN2A I176Y", "assay_type": "cell-based", "protocol": "Whole cell patch-clamp recordings were performed under voltage-clamp mode using an Axopatch 200B or 1D patch-clamp amplifier (Molecular Devices). Whole-cell currents were recorded at a holding potential of −60 mV unless indicated elsewhere, and signals were filtered at 2 kHz, digitized at 10 kHz (Digidata 1322A). Recording pipettes (3-5 MΩ) were filled with intracellular solution containing (mM): CsCl 140, HEPES 10, Mg-ATP 4, QX-314 5, pH 7.20; osmolarity, 290-295 mOsm. BAPTA (10 mM) was added in the intracellular solution (unless otherwise specified). The coverslips were continuously superfused with extracellular solution containing (mM): NaCl 140, KCl 5.4, HEPES 10, CaCl2 1.3, glucose 20, pH 7.4; osmolarity, 305-315 mOsm. NMDA-induced currents were applied by NMDA through perfusion fast-step (Warner Instruments). With perfusion fast-step system, NMDA application was achieved by using a two-square barrel glass tubing and depending on the age of the cultured neurons, CNQX (10 μM), TTX (0.5 μM) or BIC (10 μM) were added in the extracellular solution to minimize the activation of ionotropic glutamate receptors and voltage-gated sodium channels, respectively. All experiments were performed at room temperature. Recordings from at least six HEK293 cells/neurons were performed for all active compounds. […]"}, "[1]": {"target": "T2, GluN2B NMDARs in hippocampal slices (Mus musculus, UniProt P35438+Q01097)", "T2 construct": "from tissue; host or cells: mouse hippocampal slices, CA1 pyramidal neurons", "T2 sequence (Q01097 27-1482, other chains not shown)": "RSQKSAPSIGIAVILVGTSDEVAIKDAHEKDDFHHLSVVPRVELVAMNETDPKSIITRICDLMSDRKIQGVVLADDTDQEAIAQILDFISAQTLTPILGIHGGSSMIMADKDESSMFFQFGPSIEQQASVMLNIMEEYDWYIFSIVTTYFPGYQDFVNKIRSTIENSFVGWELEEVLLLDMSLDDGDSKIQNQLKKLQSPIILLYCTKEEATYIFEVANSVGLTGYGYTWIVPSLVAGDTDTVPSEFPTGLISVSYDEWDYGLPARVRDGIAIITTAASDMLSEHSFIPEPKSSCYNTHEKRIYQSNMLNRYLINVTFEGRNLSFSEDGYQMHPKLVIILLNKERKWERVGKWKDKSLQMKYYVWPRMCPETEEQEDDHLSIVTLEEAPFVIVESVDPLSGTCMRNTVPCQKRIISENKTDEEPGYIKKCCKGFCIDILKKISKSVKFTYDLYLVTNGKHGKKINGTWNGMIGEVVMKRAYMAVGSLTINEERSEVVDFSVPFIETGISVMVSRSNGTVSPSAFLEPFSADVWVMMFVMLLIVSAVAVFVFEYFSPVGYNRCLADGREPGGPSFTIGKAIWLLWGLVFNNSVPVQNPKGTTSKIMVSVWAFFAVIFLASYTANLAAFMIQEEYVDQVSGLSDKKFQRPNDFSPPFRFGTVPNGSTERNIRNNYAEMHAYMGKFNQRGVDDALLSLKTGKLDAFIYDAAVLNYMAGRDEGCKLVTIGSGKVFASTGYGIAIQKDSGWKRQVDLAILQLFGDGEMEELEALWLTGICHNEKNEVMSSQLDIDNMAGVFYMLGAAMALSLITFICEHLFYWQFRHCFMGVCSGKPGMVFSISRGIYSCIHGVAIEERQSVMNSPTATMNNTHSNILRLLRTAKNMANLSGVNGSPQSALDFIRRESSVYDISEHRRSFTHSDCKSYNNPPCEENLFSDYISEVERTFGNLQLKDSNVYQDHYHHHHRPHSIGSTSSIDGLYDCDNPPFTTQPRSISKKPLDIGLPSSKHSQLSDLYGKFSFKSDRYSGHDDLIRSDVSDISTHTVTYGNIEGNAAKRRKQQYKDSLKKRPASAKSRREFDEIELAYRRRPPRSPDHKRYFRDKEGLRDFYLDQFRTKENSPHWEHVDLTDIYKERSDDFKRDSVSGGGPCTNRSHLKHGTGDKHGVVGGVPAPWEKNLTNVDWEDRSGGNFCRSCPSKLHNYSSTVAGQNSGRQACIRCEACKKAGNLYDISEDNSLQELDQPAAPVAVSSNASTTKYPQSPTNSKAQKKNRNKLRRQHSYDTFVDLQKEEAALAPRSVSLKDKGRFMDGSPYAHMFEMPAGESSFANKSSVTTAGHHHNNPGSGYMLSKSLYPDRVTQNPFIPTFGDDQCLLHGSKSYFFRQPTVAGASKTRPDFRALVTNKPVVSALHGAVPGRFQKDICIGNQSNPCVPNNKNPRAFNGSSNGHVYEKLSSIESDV", "experiment": "Slice recordings, GluN2B component of synaptic NMDAR currents", "settings": "FIG. 18", "source_text": "6-8 week old C57/Bl6 mice or rats underwent cervical dislocation followed by decapitation. The brain was immediately transferred to an ice cold NMDG-based cutting solution consisting of: (in mM): 120 NMDG, 2.5 KCl, 1.2 NaH2PO4, 25 NaHCO3, 1.0 CaCl2, 7.0 MgCl2, 2.4 Na-pyruvate, 1.3 Na-ascorbate, 20 D-glucose with pH adjusted to 7.35 using HCl acid (unless stated, all chemicals and drugs were purchased from Sigma or BioShop, Canada). The hippocampus was dissected out and transverse hippocampal slices (400 μm) were obtained using a manual tissue chopper (Stoelting, Wood Dale, Ill., USA). Slices recovered in a heated (30° C.) incubating chamber for 1 hr which contained ACSF composed of (in mM): 124 NaCl, 3 KCl, 1.25 NaH2PO4, 1 MgSO47H2O, 2 CaCl2), 26 NaHCO3 and 15 D-glucose which was bubbled continuously with carbogen (95% O2/5% CO2) (pH to 7.3). After 30 additional minutes at room temperature, slices were transferred to a submerged recording chamber and were perfused continuously with carbogenated ACSF (2-3 ml/min). Whole-cell recordings of CA1 pyramidal neurons were performed using the “blind” method with a MultiClamp 700B amplifier. EPSCs (excitatory post synaptic currents) were elicited by stimulating the SC pathway. For isolation of NMDAR currents, cells were voltage clamped at +40 mV. […]"}, "[2]": {"system": "rat model of middle cerebral artery occlusion (MCAo)", "experiment": "Cerebral ischemia (MCAo) infarct volume", "assay_type": "in vivo", "source_text": "Adult male Sprague Dawley rats weighting ˜200 g were anesthetized, and the middle cerebral artery (MCA) was exposed by making a craniotomy window (2 mm in diameter) 1 mm rostral to the anterior junction of the zygoma and the squamosal bone. We used the suture ligation method to achieve three-vessel occlusion. The exposed MCA was ligated with a square knot using a 10-0 nylon suture. Next, the bilateral common carotid arteries (CCAs) were clamped with nontraumatic arterial clips. Successful surgery was confirmed by a marked drop in regional cerebral blood flow, monitored by a laser Doppler flowmeter (PF-5010, Periflux system; Perimed AB). After 90 min ischemia, the suture and clips were removed to allow instant reperfusion. Experimental rats were subdivided into groups to receive different doses of Npam43 or saline/vehicle (as indicated) via femoral vein injection. 2,3,5-Triphenyltetrazolium chloride (TTC) was used to evaluate infarct size in stained brain sections. […]\nThe rats were anesthetized, with body temperature maintained at 37.0±0.5° C. with a heating pad during imaging. […] The non-infarct areas were drawn manually from slice to slice and the volumes were measured with Voxtool analysis software (General Electric). The infarct size was quantified by subtracting the non-infarct volume of the ischemic hemisphere from the total volume of the contralateral hemisphere. […]"}},
  "data": [
    {"smiles": "CCOc1cc(Cl)c(Cl)c(/C=N/NC(=O)c2ccccc2Br)c1O", "note": "[Npam43, (E)-2-bromo-N′-(2,3-dichloro-5-ethoxy-6-hydroxybenzylidene)benzohydrazide]", "values": [
      {"measurement": "Relative potentiation", "setting": "GluN1/GluN2A^I176Y; Table 3", "value": "189 ± 3.8", "unit": "%"},
      {"measurement": "Net Difference potentiation", "setting": "GluN1/GluN2A^I176Y; normalized to wild-type", "value": "−10.1 ± 0.12", "unit": "%"},
      {"measurement": "Effect on GluN2B NMDARs", "setting": "[1]", "value": "no effects on the GluN2B NMDARs"},
      {"measurement": "Infarct size, long term evaluation point", "setting": "[2]; 7 days, MRI scanning, FIG. 25", "value": "reduces infarct size"},
      {"measurement": "Infarct volume", "setting": "[2]; MCAo rats, compared to vehicle/saline, 24 h post ischemia (FIG. 24)", "value": "reduces infarct volume"}
    ]}
  ]
}
